According to US4605744A, “Imidazole derivatives” (Hoffmann-La Roche Inc., priority 1985, dated 1986):
Converted amounts (≈) assume the structure as drawn. Where a name gives a salt, the structure may show the parent alone. Read-outs that look alike come from different tables or passages of the source.

Experiments:
Type in all cases: cell-based
P. mirabilis 90 = assay: In vitro antibacterial activity (MIC); conditions: Proteus mirabilis, 90, P. mirabilis 90; read-out: MIC
Outline: (§1)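 Broth microdilution in Mueller-Hinton broth, drug range 128 to 0.008 μg/ml; each well inoculated with 1.5 μl of a 10^-2 dilution of overnight culture. Sealed trays incubated overnight at 37° C. MIC is the lowest concentration showing no visible growth.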

P. aeruginosa 8780 = assay: In vitro antibacterial activity (MIC); conditions: Pseudomonas aeruginosa; P. aeruginosa 8780; read-out: MIC
Outline: as §1

E. cloacae 214 = assay: In vitro antibacterial activity (MIC)
Outline: as §1

P. mirabilis 2 = assay: In vitro antibacterial activity (MIC)
Outline: as §1

K. pneumoniae 503-994 = assay: In vitro antibacterial activity (MIC); conditions: Klebsiella pneumoniae, 503994, K. pneumoniae 503-994; read-out: MIC
Outline: as §1

P. aeruginosa 503-820 = assay: In vitro antibacterial activity (MIC); conditions: Pseudomonas aeruginosa, 503820; P. aeruginosa 503-820; read-out: MIC
Outline: as §1

P. aeruginosa B = assay: In vitro antibacterial activity (MIC); conditions: Pseudomonas aeruginosa, read-out: MIC
Outline: as §1

E. cloacae P99 = assay: In vitro antibacterial activity (MIC); conditions: Enterobacter cloacae, P99, E. cloacae P99
Outline: as §1

S. marcescens S5 = assay: In vitro antibacterial activity (MIC); conditions: Serratia marcescens, S5, S. marcescens S5; read-out: MIC
Outline: as §1

S. pneumoniae 6302 = assay: In vitro antibacterial activity (MIC); conditions: Streptococcus pneumoniae, 6302, S. pneumoniae 6302; read-out: MIC
Outline: as §1

P. aeruginosa 5700 = assay: In vitro antibacterial activity (MIC); conditions: Pseudomonas aeruginosa, 5700, P. aeruginosa 5700; read-out: MIC
Outline: as §1

P. aeruginosa 5712 = assay: In vitro antibacterial activity (MIC); conditions: Pseudomonas aeruginosa; P. aeruginosa 5712; read-out: MIC
Outline: as §1

P. aeruginosa 6148B = assay: In vitro antibacterial activity (MIC); conditions: Pseudomonas aeruginosa, read-out: MIC
Outline: as §1

S. schottmuelleri = assay: In vitro antibacterial activity (MIC)
Outline: as §1

E. coli 5152 = assay: In vitro antibacterial activity (MIC)
Outline: as §1

C. diversus CDC 1663-72 = assay: In vitro antibacterial activity (MIC); conditions: Citrobacter koseri, CDC166372
Outline: as §1

P. vulgaris 100 = assay: In vitro antibacterial activity (MIC); conditions: Proteus vulgaris
Outline: as §1

S. marcescens S714 = assay: In vitro antibacterial activity (MIC); conditions: Serratia marcescens, S714, S. marcescens S714; read-out: MIC
Outline: as §1

E. cloacae 5699 = assay: In vitro antibacterial activity (MIC); conditions: Enterobacter cloacae, 5699, E. cloacae 5699; read-out: MIC
Outline: as §1

E. coli 48 = assay: In vitro antibacterial activity (MIC)
Outline: as §1

E. cloacae 9295 = assay: In vitro antibacterial activity (MIC)
Outline: as §1

E. coli 257 = assay: In vitro antibacterial activity (MIC, Mueller-Hinton broth)
Method: Drug dilutions are prepared in Mueller-Hinton broth ranging from 128 to 0.008 μg/ml. The diluted agents are dispensed in 100 μl amounts into the wells of a 96-well tray and used immediately or frozen at -10° to -70° C. until needed. Using an automated inoculator, 1.5 μl of a 10^-2 dilution of an overnight culture is added to each well of the tray. The tops of the trays are then sealed using transparent tape and incubated overnight at 37° C. The trays are examined with the aid of a viewer. The lowest concentration at which no growth is observed is considered to be the minimum inhibitory concentration (MIC).

[1] = Proteus mirabilis, 2, P. mirabilis 2, read-out: MIC
[2] = Escherichia coli, 5152, E. coli 5152, read-out: MIC
[3] = Escherichia coli, 48, E. coli 48, read-out: MIC
[4] = Enterobacter cloacae, 9295, E. cloacae 9295, read-out: MIC
[5] = Enterobacter cloacae, 214, E. cloacae 214, read-out: MIC
[6] = C. diversus CDC 1663-72, read-out: MIC
[7] = Escherichia coli, 257, E. coli 257, read-out: MIC

Structure (SMILES)	MIC (P. mirabilis 90)	MIC (P. aeruginosa 8780)	MIC (P. mirabilis 2; [1])	MIC (K. pneumoniae 503-994)	MIC (P. aeruginosa 503-820)	MIC (P. aeruginosa B)	MIC (E. cloacae P99)	MIC (S. marcescens S5)	MIC (S. pneumoniae 6302)	MIC (P. aeruginosa 5700)	MIC (P. aeruginosa 5712)	MIC (P. aeruginosa 6148B)	MIC (S. schottmuelleri; read-out: MIC)	MIC (E. coli 5152; [2])	MIC (P. vulgaris 100; P. vulgaris 100, read-out: MIC)	MIC (S. marcescens S714)	MIC (E. cloacae 5699)	MIC (E. coli 48; [3])	MIC (E. cloacae 9295; [4])	MIC (E. cloacae 214; [5])	other results
CC1(C)S[C@@H]2[C@H](N=CN3CCC(Cn4ccnc4)CC3)C(=O)N2[C@H]1C(=O)O [Compound A]	1 µg/mL (≈ 2.55 µM)	> 128 µg/mL	0.5 µg/mL (≈ 1.28 µM)	0.25 µg/mL (≈ 0.639 µM)	> 128 µg/mL	0.25 µg/mL (≈ 0.639 µM)	0.25 µg/mL (≈ 0.639 µM)	2 µg/mL (≈ 5.11 µM)	2 µg/mL (≈ 5.11 µM)	0.25 µg/mL (≈ 0.639 µM)	> 128 µg/mL	> 128 µg/mL	0.125 µg/mL (≈ 0.319 µM)	16 µg/mL (≈ 40.9 µM)	8 µg/mL (≈ 20.4 µM)	1 µg/mL (≈ 2.55 µM)	0.5 µg/mL (≈ 1.28 µM)	0.062 µg/mL (≈ 0.158 µM)	0.5 µg/mL (≈ 1.28 µM)		MIC (E. cloacae 214; Enterobacter cloacae, 214): 0.125 µg/mL (≈ 0.319 µM); MIC (C. diversus CDC 1663-72): 0.125 µg/mL (≈ 0.319 µM); MIC (E. coli 257; Escherichia coli, 257): 0.125 µg/mL (≈ 0.319 µM)
Cc1nc(C)n(CCCC2CCN(C=N[C@@H]3C(=O)N4[C@@H]3SC(C)(C)[C@@H]4C(=O)O)CC2)c1C [E, [2S-(2alpha,5alpha,6beta)]-6[[4-[3-[(2,4,5-trimethyl-1H-imidazol-1-yl)propyl]-1-piperidinyl]methylene]amino]-3,3-dimethyl-7-oxo-4-thia-1-azabicyclo[3.2.0]heptane-2-carboxylic acid hydrate hydrochloride]	0.5 µg/mL	> 128 µg/mL	0.5 µg/mL	0.062 µg/mL	> 128 µg/mL	> 128 µg/mL	0.125 µg/mL	1 µg/mL	1 µg/mL	> 128 µg/mL	> 128 µg/mL	> 128 µg/mL	0.062 µg/mL	8 µg/mL	8 µg/mL	1 µg/mL	0.125 µg/mL	0.062 µg/mL	0.25 µg/mL	0.5 µg/mL	MIC (C. diversus CDC 1663-72; [6]): 0.062 µg/mL; MIC (E. coli 257; [7]): 0.062 µg/mL
Cc1nccn1CCCC1CCN(C=N[C@@H]2C(=O)N3[C@@H]2SC(C)(C)[C@@H]3C(=O)O)CC1 [F, [2S-(2alpha,5alpha,6beta)]-3,3-dimethyl-6-[[[4-[3-(2-methyl-1H-imidazol-1-yl)propyl]-1-piperidinyl]methylene]amino]-7-oxo-4-thia-1-azabicyclo[3.2.0]heptane-2-carboxylic acid 1.15 molar hydrochloride 1.75 molar hydrate]	0.5 µg/mL	> 12 µg/mL		2 µg/mL	> 128 µg/mL	0.25 µg/mL	0.125 µg/mL	1 µg/mL	2 µg/mL	0.5 µg/mL	> 128 µg/mL	> 128 µg/mL	0.062 µg/mL	8 µg/mL	16 µg/mL	1 µg/mL	0.25 µg/mL	0.062 µg/mL	0.25 µg/mL	0.125 µg/mL	MIC (P. mirabilis 2; Proteus mirabilis, 2): 0.5 µg/mL; MIC (C. diversus CDC 1663-72; [6]): 0.062 µg/mL; MIC (E. coli 257; [7]): 0.125 µg/mL
CCc1nc(C)cn1CCCC1CCN(C=N[C@@H]2C(=O)N3[C@@H]2SC(C)(C)[C@@H]3C(=O)O)CC1 [G, [2S-(2alpha,5alpha,6beta)]-6-[[[4-[3-(2-ethyl-4methyl-1H-imidazol-1-yl)propyl]piperidinyl]methylene]amino]-3,3-dimethyl-7-oxo-4-thia-1-azabicyclo[3.2.0]heptane-2-carboxylic acid hydrochloride]	1 µg/mL	> 128 µg/mL	1 µg/mL	0.25 µg/mL	> 128 µg/mL	0.25 µg/mL	0.5 µg/mL	2 µg/mL	2 µg/mL	1 µg/mL	> 128 µg/mL	> 128 µg/mL	0.125 µg/mL			8 µg/mL	0.5 µg/mL	0.062 µg/mL	0.5 µg/mL	0.25 µg/mL	MIC (E. coli 5152; Escherichia coli, 5152): 16 µg/mL; MIC (C. diversus CDC 1663-72): 0.125 µg/mL; MIC (P. vulgaris 100; 100): 32 µg/mL; MIC (E. coli 257; Escherichia coli, 257): 0.25 µg/mL
CC1(C)S[C@@H]2[C@H](N=CN3CCC(Cn4ccnc4N)CC3)C(=O)N2[C@H]1C(=O)O [H, [2S-(2alpha,5alpha,6beta)]-6-[[[4-[(2-amino-1H-imidazol-1-yl)methyl-1-piperidinyl]methylene]amino]-3,3-dimethyl-7-oxo-4-thia-1-azabicyclo[3.2.0]heptane-2-carboxylic acid hydrochloride]	0.125 µg/mL	> 128 µg/mL	0.25 µg/mL	0.125 µg/mL	64 µg/mL	0.5 µg/mL	0.062 µg/mL	0.5 µg/mL	1 µg/mL	0.125 µg/mL	128 µg/mL	64 µg/mL	0.062 µg/mL	8 µg/mL	4 µg/mL	0.25 µg/mL	0.25 µg/mL	0.062 µg/mL		0.125 µg/mL	MIC (C. diversus CDC 1663-72; [6]): 0.062 µg/mL; MIC (E. cloacae 9295; Enterobacter cloacae, 9295): 0.5 µg/mL; MIC (E. coli 257; Escherichia coli, 257): 0.25 µg/mL
CC1(C)S[C@@H]2[C@H](N=CN3CCC(Cn4ccnc4CN)CC3)C(=O)N2[C@H]1C(=O)O [J, [2S-(2alpha,5alpha,6beta)]-6-[[[4-[[2-(aminomethyl)-1H-imidazol-1-yl]methyl]-1-piperidinyl]methylene]amino]-3,3-dimethyl-7-oxo-4-thia-1-azabicyclo[3.2.0]heptane-2-carboxylic acid hydrochloride]	1 µg/mL	> 128 µg/mL	8 µg/mL	8 µg/mL	> 128 µg/mL	0.25 µg/mL	8 µg/mL	0.5 µg/mL	4 µg/mL	0.5 µg/mL	> 128 µg/mL	128 µg/mL		16 µg/mL	8 µg/mL	0.5 µg/mL	4 µg/mL	8 µg/mL	4 µg/mL	1 µg/mL	MIC (S. schottmuelleri): 0.062 µg/mL; MIC (C. diversus CDC 1663-72; [6]): 0.031 µg/mL; MIC (E. coli 257; [7]): 0.125 µg/mL
CC1(C)S[C@@H]2[C@H](N=CN3CCC(CCCn4ccnc4[N+](=O)[O-])CC3)C(=O)N2[C@H]1C(=O)O [K, [2S-(2alpha,5alpha,6beta)]-6-[[[4-[3-(2-nitro-1H-imidazol-1-yl)propyl]piperidinyl]methylene]amino]-3,3-dimethyl-7-oxo-4-thia-1-azabicyclo[3.2.0]heptane-2-carboxylic acid hydrochloride 0.66 molar hydrate]	8 µg/mL	> 128 µg/mL	4 µg/mL	0.25 µg/mL	> 128 µg/mL	0.25 µg/mL	0.5 µg/mL	8 µg/mL	1 µg/mL	4 µg/mL	> 128 µg/mL	> 128 µg/mL	0.5 µg/mL		16 µg/mL	8 µg/mL	1 µg/mL		1 µg/mL	0.5 µg/mL	MIC (E. coli 5152; Escherichia coli, 5152): 8 µg/mL; MIC (C. diversus CDC 1663-72; [6]): 0.25 µg/mL; MIC (E. coli 48; Escherichia coli, 48): 0.25 µg/mL; MIC (E. coli 257; Escherichia coli, 257): 0.5 µg/mL
CC1(C)S[C@@H]2[C@H](N=CN3CCC(C4=NCCN4)CC3)C(=O)N2[C@H]1C(=O)O [L, [2S-(2alpha,5alpha,6beta)]-6-[[[4-(4,5-dihydro-1H-imidazol-2-yl)-1-piperidinyl]methylene]amino]-3,3-dimethyl-7-oxo-4-thia-1-azabicyclo[3.2.0]heptane-2-carboxylic acid hydrochloride]	2 µg/mL	> 128 µg/mL	1 µg/mL	1 µg/mL	128 µg/mL	0.5 µg/mL	0.25 µg/mL	4 µg/mL	1 µg/mL	2 µg/mL	> 128 µg/mL	128 µg/mL	0.25 µg/mL	32 µg/mL	32 µg/mL	2 µg/mL	1 µg/mL	0.5 µg/mL	2 µg/mL	1 µg/mL	MIC (C. diversus CDC 1663-72; [6]): 0.5 µg/mL; MIC (E. coli 257; [7]): 1 µg/mL
